Experimental data published in publication PMC5643462, “Encrypted Antimicrobial Peptides from Plant Proteins” (Scientific Reports, 2017).
≈ marks a conversion by molar mass, not a printed value. Where two headings read alike, the source gives them in different places. No end group written: not given here.

Experiments:
[1] = test system: Moniliophthora perniciosa basidiospores; assay: Inhibition of M. perniciosa basidiospore germination; type: cell-based; settings: 1 × 10^6 basidiospores mL^−1, one hour with peptide (256-0.5 µM), 24 °C, counted after 4 hours on agar slides, biological triplicates; for IC50: concentration at which at least 50% of basidiospores germination was inhibited, read-out: Inhibitory concentration IC50, M. perniciosa basidiospores germination; for Inhibitory concentration IC95, M. perniciosa basidiospores germination: concentration at which at least 95% of basidiospores germination was inhibited
Method: The antimicrobial potential of T. cacao IAPs for inhibiting M. perniciosa basidiospores was evaluated. Briefly, 1 × 10^6 basidiospores mL^−1 were incubated for one hour with different concentrations of T. cacao IAPs (256-0.5 µM), at 24 °C, in a final volume of 100 µL. Autoclaved dH20 was used as a control. After incubation, 3 droplets of 10 µL each were placed in a slide coated with agar (1.2% (w/v)). Slides were incubated for 4, 24 and 48 hours at 24 °C. Slides were visualized using a DMRXA light microscope (Leica). Approximately 150–200 basidiospores per droplet from each time point were counted and compared to the control condition, which was defined as 100% germination. All experiments were performed in biological triplicates, with 3 technical repetitions each.

human red blood cells = assay: Cytotoxicity: hemolysis of human red blood cells; type: cell-based
Method: The cytotoxicity of the selected IAPS was performed using human red blood cells in strict accordance with relevant guidelines and regulations (Ethical committee – UnB # 1.939.989). Different concentrations of IAPs (128 µM–0.5 µM) were incubated with a final concentration of 2.5 × 10^5 red blood cells.mL^−1. Briefly, 100 µL of red blood cells was incubated with 100 µL of different concentrations of each IAP, prepared in PBS, for 30 minutes at 37 °C, with constant shaking at 120 rpm. PBS and Triton X-100 0.1% (v/v) were used as negative and positive controls, respectively. After incubation, the solution was centrifuged at 900 × g for five minutes followed by transferring 50 µL of the supernatant to flat-bottom polystyrene 96-well micro plates containing 50 µL of PBS. Microplate reading was performed at a BioTek Multireader, using a wavelength of 540 nm. All tests were performed in 3 biological replicates, composed of 3 biological repetitions each. The obtained data was subtracted by the negative control and relative to the positive control, defined as 100% lysis.

Candida albicans = assay: microbe, parasite or virus in culture; settings: for Minimum inhibitory concentration, Candida albicans: ATCC 90028, RPMI 1640 pH 7.0, 37 °C, 48 h, start 2.5 x 10^3 cells, 256-0.5 µM, mean ± SD of 3 biological repetitions (SD 0 not displayed), no cells seen by optical microscopy, N/A = no antimicrobial activity observed
Method: (§1) The susceptibility test of microorganisms was performed to evaluate the inhibitory activity of the IAPs. Protocols M7-A10[50], M27-A3[51] and M38-A2[52] from Clinical & Laboratory Standards Institute (CLSI) were used for bacteria, yeasts and filamentous fungi tests, respectively. Briefly, different concentration of IAPs (256-0.5 µM) were tested against 16 microorganisms, in a final volume of 100 µL. Media conditions, final cell concentration and incubation conditions are presented in Supplementary Material 07, Table S5. Three biological repetitions, with 2 technical replicates each, were performed for each test, on polystyrene flat-bottom 96 wells microplates. The minimum inhibitory concentration (MIC) was defined as the concentration that no cells/hyphae were detected when visualized by optical microscopy.
(§2) Supplementary Material 07, Table S5
(§3) Table S5. Microorganisms and growth conditions.

Cryptococcus neoformans = assay: microbe, parasite or virus in culture; settings: for Minimum inhibitory concentration, Cryptococcus neoformans: ATCC 28957, RPMI 1640 pH 7.0, 37 °C, 72 h, start 2.5 x 10^3 cells, 256-0.5 µM, mean ± SD of 3 biological repetitions (SD 0 not displayed), N/A = no antimicrobial activity observed
Method: as §1, §2, §3

Bacillus cereus = assay: microbe, parasite or virus in culture; settings: ATCC 14579; Mueller-Hinton; 37 °C, 24 h; start 5.0 x 10^5 cells; 256-0.5 µM; mean ± SD of 3 biological repetitions (SD 0 not displayed); N/A = no antimicrobial activity observed
Method: as §1, §2, §3

Escherichia coli = assay: microbe, parasite or virus in culture; settings: ATCC 25922; Mueller-Hinton; 37 °C, 24 h; start 5.0 x 10^5 cells; 256-0.5 µM; mean ± SD of 3 biological repetitions (SD 0 not displayed); N/A = no antimicrobial activity observed
Method: as §1, §2, §3

Staphylococcus aureus = assay: microbe, parasite or virus in culture; settings: ATCC 25923; Mueller-Hinton; 37 °C, 24 h; start 5.0 x 10^5 cells; 256-0.5 µM; mean ± SD of 3 biological repetitions (SD 0 not displayed); N/A = no antimicrobial activity observed
Method: as §1, §2, §3

Pseudomonas aeruginosa = assay: microbe, parasite or virus in culture; settings: ATCC 27853; Mueller-Hinton; 37 °C, 24 h; start 5.0 x 10^5 cells; 256-0.5 µM; mean ± SD of 3 biological repetitions (SD 0 not displayed); N/A = no antimicrobial activity observed
Method: as §1, §2, §3

Bacillus subtilis = assay: microbe, parasite or virus in culture; settings: ATCC 23857; Mueller-Hinton; 37 °C, 24 h; start 5.0 x 10^5 cells; 256-0.5 µM; mean ± SD of 3 biological repetitions (SD 0 not displayed); N/A = no antimicrobial activity observed
Method: as §1, §2, §3

Molecule	IC50 [1] [µM]	Inhibitory concentration IC95, M. perniciosa basidiospores germination [1] [µM]	Hemolytic activity (% ± SD) at 1 µM (human red blood cells) [%]	Hemolytic activity (% ± SD) at 2 µM (human red blood cells) [%]	Hemolytic activity (% ± SD) at 4 µM (human red blood cells) [%]	Hemolytic activity (% ± SD) at 8 µM (human red blood cells)	Hemolytic activity (% ± SD) at 16 µM (human red blood cells) [%]	Hemolytic activity (% ± SD) at 32 µM (human red blood cells) [%]	Hemolytic activity (% ± SD) at 64 µM (human red blood cells) [%]	Hemolytic activity (% ± SD) at 128 µM (human red blood cells) [%]	Hemolytic activity of human red blood cells (%) SC50 (human red blood cells) [µM]	other results
GKILKYLLYLLRKYANLIIR-NH2 [Tc02]	8	16	0.00 ± 0.00	0.00 ± 0.00	0.40 ± 0.26	2.89 ± 1.12%	6.30 ± 1.59	17.39 ± 1.15	29.15 ± 2.57	50.15 ± 5.15	64	Concentration that induced 50% hemolysis (human red blood cells; red cells of human): 64 µM
OC(Cn1cncn1)(Cn1cncn1)c1ccc(F)cc1F [Fluconazole, reference compound]												MIC (Candida albicans; Candida albicans, ATCC90028, 48 h, pH 7, read-out: Minimum inhibitory concentration, Candida albicans): 1.63 µM (≈ 0.499 µg/mL); MIC (Cryptococcus neoformans; Cryptococcus neoformans, ATCC28957, 72 h, pH 7, read-out: Minimum inhibitory concentration, Cryptococcus neoformans): 1.63 µM (≈ 0.499 µg/mL)
GFKDLLKGAAKALVKTVLF-NH2 [Asc-8, Ascaphin-8, reference compound]	8	16	0.00 ± 0.00	0.32 ± 0.1	0.26 ± 0.2	14.72 ± 0 .79%	28.10 ± 4.76	54.35 ± 4.5	91.90 ± 6.36	101.56 ± 9.52	16	
GSLHGFMYKYLKNMVLNLF-NH2 [Tc06]	32	64	0.00 ± 0.00	0.00 ± 0.00	0.00 ± 0.00	0.00 ± 0.00%	0.01 ± 0.00	0.77 ± 0.23	1.18 ± 0.23	7.67 ± 1.69	>128	
GSLHGFMYKYLKTLVLRLY-NH2 [Zm01]			0.00 ± 0.00	0.02 ± 0.00	0.00 ± 0.00	0.00 ± 0.00%	0.66 ± 0.14	2.45 ± 1.03	6.56 ± 1.87	15.72 ± 3.48	>128	Minimum inhibitory concentration, Bacillus cereus (Bacillus cereus): 64.0 µM; Minimum inhibitory concentration, Escherichia coli (Escherichia coli): 13.33 ± 4.61 µM; Minimum inhibitory concentration, Staphylococcus aureus (Staphylococcus aureus): 16 µM; Minimum inhibitory concentration, Candida albicans (Candida albicans): 6.67 ± 2.31 µM; Minimum inhibitory concentration, Cryptococcus neoformans (Cryptococcus neoformans): 4.0 µM; Minimum inhibitory concentration, Pseudomonas aeruginosa (Pseudomonas aeruginosa): 16.0 µM; Minimum inhibitory concentration, Bacillus subtilis (Bacillus subtilis): 8.0 µM
GLWSTIKQKGKEAAIAAAKAAGQAALGAL-NH2 [DS01, Dermaseptin DS01, reference compound]	128	256	0.00 ± 0.00	0.19 ± 0.02	0.17 ± 0.04	0.03 ± 0.01%	0.48 ± 0.12	0.79 ± 0.30	3.70 ± 1.34			Hemolytic activity of human red blood cells (%) SC50 (human red blood cells; SC50 = IAP concentration that at least 50% of red blood cells remain intact, 128 µM–0.5 µM tested, PBS, 30 minutes, 37 °C, absorbance 540 nm): >128 µM
GSLHGFMYRYLKNMVLNLF-NH2 [Cs01]			0.10 ± 0.04	0.05 ± 0.03	0.01 ± 0.00	0.09 ± 0.01%	0.27 ± 0.09	0.31 ± 0.15	2.18 ± 1.62	8.01 ± 2.16	>128	Minimum inhibitory concentration, Bacillus cereus (Bacillus cereus): 64.0 µM; Minimum inhibitory concentration, Escherichia coli (Escherichia coli): 32.0 µM; Minimum inhibitory concentration, Staphylococcus aureus (Staphylococcus aureus): 4.0 µM; Minimum inhibitory concentration, Candida albicans (Candida albicans): 2.67 ± 1.15 µM; Minimum inhibitory concentration, Cryptococcus neoformans (Cryptococcus neoformans): 8.0 µM; Minimum inhibitory concentration, Pseudomonas aeruginosa (Pseudomonas aeruginosa): 32.0 µM; Minimum inhibitory concentration, Bacillus subtilis (Bacillus subtilis): 8.0 µM
GLLFKELQKLIRYQIFIGK-NH2 [Tc10]	32	64	0.00 ± 0.0	0.00 ± 0.0	0.18 ± 0.04	0.06 ± 0.02%	0.00 ± 0.00	0.23 ± 0.10	0.68 ± 0.17	4.56 ± 0.58	>128	
